Source: patent publication US7652064B2, “AMPA receptor potentiators” (Eli Lilly and Company, priority 2005, dated 2010)

Target: T1, human iGluR4 (Homo sapiens, UniProt P48058)
T1 construct: expressed in transfected cells; host or cells: HEK293
Assay: Whole-cell voltage clamp electrophysiology of AMPA receptor potentiation in HEK293 cells stably expressing human iGluR4
Type: cell-based
Details: voltage-clamped at −60 mV, 1 mM glutamate, fit to the Hill equation, read-out: activity (EC50, potentiation of current evoked by 1 mM glutamate)
Excerpt: HEK293 cells stably expressing human iGluR4 (obtained as described in European Patent Application Publication No. EP-A1-0583917) are used in the electrophysiological characterization of AMPA receptor potentiators. The extracellular recording solution contains (in mM): 140 NaCl, 5 KCl, 10 HEPES, 1 MgCl2, 2 CaCl2, 10 glucose, pH=7.4 with NaOH, 295 mOsm kg-1. The intracellular recording solution contains (in mM): 140 CsCl, 1 MgCl2, 10 HEPES, (N-[2-hydroxyethyl]piperazine-N1-[2-ethanesulfonic acid]) 10 EGTA (ethylene-bis(oxyethylene-nitrilo)tetraacetic acid), pH=7.2 with CsOH, 295 mOsm kg-1. With these solutions, recording pipettes have a resistance of 2-3 MΩ. […] Responses to 1 mM glutamate are then determined in the presence of test compound. […]
In order to determine the potency of test compounds, the concentration of the test compound, both in the bathing solution and co-applied with glutamate, is increased in half log units until the maximum effect was seen. […] Reversibility of test compound activity is determined by assessing control glutamate 1 mM responses. Once the control responses to the glutamate challenge are re-established, the potentiation of these responses by 100 μM cyclothiazide is determined by its inclusion in both the bathing solution and the glutamate-containing solution. In this manner, the efficacy of the test compound relative to that of cyclothiazide can be determined. […]

T1 sequence (P48058 21-902): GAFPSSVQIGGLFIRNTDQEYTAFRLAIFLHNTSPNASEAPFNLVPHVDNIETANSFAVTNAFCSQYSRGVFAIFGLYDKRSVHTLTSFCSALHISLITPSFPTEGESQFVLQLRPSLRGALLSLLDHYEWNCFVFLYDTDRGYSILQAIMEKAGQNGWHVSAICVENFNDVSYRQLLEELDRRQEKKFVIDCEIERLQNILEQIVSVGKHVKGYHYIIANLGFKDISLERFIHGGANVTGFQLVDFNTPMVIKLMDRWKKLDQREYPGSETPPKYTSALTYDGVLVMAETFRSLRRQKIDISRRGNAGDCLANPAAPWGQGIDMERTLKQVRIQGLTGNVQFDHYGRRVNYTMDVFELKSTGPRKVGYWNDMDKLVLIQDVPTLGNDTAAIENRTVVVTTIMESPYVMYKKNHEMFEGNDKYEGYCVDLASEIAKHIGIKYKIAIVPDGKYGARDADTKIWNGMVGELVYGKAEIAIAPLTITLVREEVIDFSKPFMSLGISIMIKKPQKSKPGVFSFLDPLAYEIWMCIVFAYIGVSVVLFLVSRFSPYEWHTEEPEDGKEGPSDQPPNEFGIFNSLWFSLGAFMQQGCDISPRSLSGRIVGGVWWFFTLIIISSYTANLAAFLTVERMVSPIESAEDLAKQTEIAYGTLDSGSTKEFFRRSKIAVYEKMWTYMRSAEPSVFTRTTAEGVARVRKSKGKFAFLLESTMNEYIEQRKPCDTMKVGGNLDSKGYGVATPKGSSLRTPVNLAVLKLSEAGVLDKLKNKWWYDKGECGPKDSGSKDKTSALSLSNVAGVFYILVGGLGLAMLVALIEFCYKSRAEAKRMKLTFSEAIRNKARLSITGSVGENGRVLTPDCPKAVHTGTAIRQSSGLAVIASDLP

`CCOc1cc(C(=O)O)ccc1-c1ccc(-c2sccc2NS(=O)(=O)C(C)C)cc1` [Example 1, 2-Ethoxy-4′-[3-(propane-2-sulfonylamino)-thiophen-2-yl]-biphenyl-4-carboxylic acid] showed an EC50 of 145 nM.
